This note sets out measurements from patent publication US8304447B2, “2-acylaminopropoanol-type glucosylceramide synthase inhibitors” (Genzyme Corporation, priority 2007, dated 2012).

Structures are written as SMILES.

This assay concerns GM3. The assay can be described thus: GM3 Elisa assay. The format is cell-based. To be noted: Table 3 (IC 50 Values); B16-FO cells; read-out: IC50_uM_Mean. Summed up:
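Murine B16-FO melanoma cells attached 6 h on collagen, then exposed to compounds for 2 days at 37 °C. After formaldehyde fixation, cell-surface GM3 (NeuAc) was detected by anti-GM3 IgM and peroxidase anti-mouse IgM with Quantablu fluorescence (Ex 325/Em 420).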
`CCCCOc1ccc([C@@H](O)[C@@H](CN2CC[C@H](O)C2)NC(=O)CCCCC(=O)c2ccc(F)cc2)cc1` [Compound 657]: the IC50 lay in the range of 100 to 1000 nM.

As for `CCCCOc1ccc([C@@H](O)[C@@H](CN2CC[C@@H](F)C2)NC(=O)CCCCC(=O)c2ccc(F)cc2)cc1` [Compound 658], the IC50 lay in the range of 100 to 1000 nM.

For `CCCCOc1ccc([C@@H](O)[C@@H](CN2CC[C@@H](F)C2)NC(=O)CCCCCOCCF)cc1` [Compound 660], the IC50 is 100 to 1000 nM.

Take `CCCCOc1ccc([C@@H](O)[C@@H](CN2CC[C@H](O)C2)NC(=O)CCCCCOCCF)cc1` [Compound 661]: the IC50 fell in the range of 1000 to 3000 nM.

Regarding `CCCCOc1ccc([C@@H](O)[C@@H](CN2CC[C@@H](F)C2)NC(=O)CCCCCOC2CCC2)cc1` [Compound 662], the IC50 is 100 to 1000 nM.

Take `CCCCC(=O)CCCCCCC(=O)N[C@H](CN1CCCC1)[C@H](O)c1ccc2c(c1)OCCO2` [Compound 663]: the IC50 is 100 to 1000 nM.

`COc1ccc([C@@H](O)[C@@H](CN2CCCC2)NC(=O)CCCCCC(C)=O)cc1` [Compound 664]: the IC50 fell in the range of 1000 to 3000 nM.

In the case of `CC(=O)CCCCCC(=O)N[C@H](CN1CCCC1)[C@H](O)c1ccc(OC(F)(F)F)cc1` [Compound 665], the IC50 lay within 3000 to 10000 nM.

On to `COc1ccc(C(=O)CCCCCC(=O)N[C@H](CN2CCCC2)[C@H](O)c2ccc(OC(F)(F)F)cc2)cc1` [Compound 666], for which the IC50 fell in the range of 100 to 1000 nM.

With `CCCCCCCC(=O)N[C@H](CN1CCCC1)[C@H](O)c1ccc(OC(F)(F)F)cc1` [Compound 667], the IC50 was 100 to 1000 nM.

For `COc1ccc(C(=O)CCCCCC(=O)N[C@H](CN2CCCC2)[C@H](O)c2cc(OC)c(OC)c(OC)c2)cc1` [Compound 668], the IC50 lay within 1000 to 3000 nM.

Regarding `CCCCCCCC(=O)N[C@H](CN1CCCC1)[C@H](O)c1cc(OC)c(OC)c(OC)c1` [Compound 669], the IC50 is 3000 to 10000 nM.

For the molecule `O=C1CCC(=O)N1[C@H](CN1CCCC1)[C@H](O)c1ccc2c(c1)OCCO2` [Compound 670], the IC50 was in the range of 3000 to 10000 nM.

On to `COc1cc([C@@H](O)[C@@H](CN2CCCC2)NC(=O)CCCCCC(C)=O)cc(OC)c1OC` [Compound 671], for which the IC50 is 3000 to 10000 nM.

Regarding `CCCCCCCC(=O)N[C@@H](CN1CCCC1)[C@H](O)c1ccc2c(c1)OCCO2` [Compound 672], the IC50 was in the range of 3000 to 10000 nM.

For the molecule `CCCCCCCC(=O)N[C@H](CN1CCCC1)[C@@H](O)c1ccc2c(c1)OCCO2` [Compound 673], the IC50 lay in the range of 3000 to 10000 nM.

For `COc1ccc(OCCC(=O)N[C@@H](CN2CCCC2)[C@@H](O)c2ccc3c(c2)OCCO3)cc1` [Compound 674], the IC50 fell in the range of 3000 to 10000 nM.

As to `COc1ccc(OCCC(=O)N[C@@H](CN2CCCC2)[C@H](O)c2ccc3c(c2)OCCO3)cc1` [Compound 675], the IC50 lay in the range of 3000 to 10000 nM.

`COc1ccc(OCCC(=O)N[C@H](CN2CCCC2)[C@@H](O)c2ccc3c(c2)OCCO3)cc1` [Compound 676]: the IC50 fell in the range of 3000 to 10000 nM.

For `CCCCCCCC(=O)N[C@@H](CN1CCCC1)[C@@H](O)c1ccc2c(c1)OCCO2` [Compound 677], the IC50 lay within 3000 to 10000 nM.

In the case of `CCCCCCCCCCCCCCCC(=O)N[C@H](CNCc1ccccc1)[C@H](O)c1ccc2c(c1)OCCO2` [Compound 678], the IC50 was in the range of 3000 to 10000 nM.

In the case of `CCCCCCCCCCCCCCCC(=O)N[C@H](CNCc1ccco1)[C@H](O)c1ccc2c(c1)OCCO2` [Compound 679], the IC50 fell in the range of 3000 to 10000 nM.

`CCCCCCCCCCCCCCCC(=O)N[C@H](CNC(C)C)[C@H](O)c1ccc2c(c1)OCCO2` [Compound 680]: the IC50 was no more than 100 nM.

Regarding `CCCCCCCCCCCCCCCC(=O)N[C@H](CNC1CCCC1)[C@H](O)c1ccc2c(c1)OCCO2` [Compound 681], the IC50 lay in the range of 1000 to 3000 nM.

For the molecule `CCCCCCCCCCCCCCCC(=O)N[C@H](CN(C)Cc1ccccc1)[C@H](O)c1ccc2c(c1)OCCO2` [Compound 682], the IC50 lay in the range of 3000 to 10000 nM.

Turning to `CCCCCCCCCCCCCCCC(=O)N[C@H](CN(C)Cc1ccco1)[C@H](O)c1ccc2c(c1)OCCO2` [Compound 683], the IC50 lay within 3000 to 10000 nM.

`CCCCCCCCCCCCCC(=O)N[C@H](CN(C)C(C)C)[C@H](O)c1ccc2c(c1)OCCO2` [Compound 684]: the IC50 was 100 to 1000 nM.

For the molecule `CCCCCCCCCCCCCCCC(=O)N[C@H](CN(C)C1CCCC1)[C@@H](O)c1ccc2c(c1)OCCO2` [Compound 685], the IC50 lay within 3000 to 10000 nM.

Turning to `CCCCCCCC(=O)N[C@H](CCN1CCOCC1)[C@H](O)c1ccc2c(c1)OCCO2` [Compound 686], the IC50 was in the range of 3000 to 10000 nM.

`CCCCCCCC(=O)N[C@H](CCN1CCCC1)[C@H](O)c1ccc2c(c1)OCCO2` [Compound 687]: the IC50 lay within 3000 to 10000 nM.

In the case of `COc1ccc(C(=O)CCCCCC(=O)N[C@H](CCN2CCCC2)[C@H](O)c2ccc3c(c2)OCCO3)cc1` [Compound 688], the IC50 lay in the range of 3000 to 10000 nM.

On to `O=C(CCC(=O)N[C@H](CN1CCCC1)[C@H](O)c1ccc2c(c1)OCCO2)NC1CCCCC1` [Compound 689], for which the IC50 was 3000 to 10000 nM.

As for `CC(C)Oc1ccc(C(=O)NCCCCCC(=O)N[C@H](CN2CCCC2)[C@H](O)c2ccc3c(c2)OCCO3)cc1` [Compound 690], the IC50 was no more than 100 nM.

Take `O=C(CCCNC(=O)NC1CCCCC1)N[C@H](CN1CCCC1)[C@H](O)c1ccc2c(c1)OCCO2` [Compound 691]: the IC50 fell in the range of 3000 to 10000 nM.

Take `O=C(CCOc1ccnc2ccccc12)N[C@H](CN1CCCC1)[C@H](O)c1ccc2c(c1)OCCO2` [Compound 692]: the IC50 lay in the range of 100 to 1000 nM.

Consider `COc1ccc(C(=O)CCCCCC(=O)N[C@H](CN2CCCC2)[C@H](O)c2ccc(-c3ccccc3)cc2)cc1` [Compound 693], for which the IC50 was no more than 100 nM.

With `COc1ccc(C(=O)CCCCC(=O)N[C@H](CN2CCCC2)[C@H](O)c2ccc(-c3ccccc3)cc2)cc1` [Compound 694], the IC50 lay in the range of 100 to 1000 nM.

Consider `COc1ccc(OCCC(=O)N[C@H](CN2CCCC2)[C@H](O)c2ccc(-c3ccccc3)cc2)cc1` [Compound 695], for which the IC50 fell in the range of 100 to 1000 nM.

As to `COc1ccc(C(=O)CCCC(=O)N[C@H](CN2CCCC2)[C@H](O)c2ccc(-c3ccccc3)cc2)cc1` [Compound 696], the IC50 was 1000 to 3000 nM.

With `CCCCCCCC(=O)N[C@H](CN1CCCC1)[C@H](O)c1ccc(-c2ccccc2)cc1` [Compound 697], the IC50 lay within 100 to 1000 nM.

Consider `COc1ccc(C(=O)CCCCC(=O)N[C@H](CN2CCCC2)[C@H](O)c2ccccc2OC)cc1` [Compound 698], for which the IC50 lay in the range of 100 to 1000 nM.

For the molecule `COc1ccc(C(=O)CCCCCC(=O)N[C@H](CN2CCCC2)[C@H](O)c2ccccc2OC)cc1` [Compound 699], the IC50 was no more than 100 nM.

As to `COc1ccc(OCCC(=O)N[C@H](CN2CCCC2)[C@H](O)c2ccccc2OC)cc1` [Compound 700], the IC50 lay within 100 to 1000 nM.

On to `COc1ccc(C(=O)CCCC(=O)N[C@H](CN2CCCC2)[C@H](O)c2ccccc2OC)cc1` [Compound 701], for which the IC50 lay in the range of 1000 to 3000 nM.

On to `O=C(Cc1ccc(OC(F)(F)F)cc1)N[C@H](CN1CCCC1)[C@H](O)c1ccc(OCc2ccccc2)cc1` [Compound 702], for which the IC50 was no more than 100 nM.

Consider `CCCCCCCC(=O)N[C@H](CN1CCCC1)[C@H](O)c1ccc(OCc2ccccc2)cc1` [Compound 703], for which the IC50 was no more than 100 nM.

Take `COc1ccc(C(=O)CCCCCC(=O)N[C@H](CN2CCCC2)[C@H](O)c2ccc(OCc3ccccc3)cc2)cc1` [Compound 704]: the IC50 was no more than 100 nM.

Take `COc1ccc(OCCC(=O)N[C@H](CN2CCCC2)[C@H](O)c2ccc(OCc3ccccc3)cc2)cc1` [Compound 705]: the IC50 is no more than 100 nM.

Take `COc1ccc(C(=O)CCCCC(=O)N[C@H](CN2CCCC2)[C@H](O)c2ccc(OCc3ccccc3)cc2)cc1` [Compound 706]: the IC50 is no more than 100 nM.

As for `COc1ccc(C(=O)CCCCCC(=O)N[C@H](CN2CCCC2)[C@H](O)c2ccc(OC)c(Cl)c2)cc1` [Compound 707], the IC50 is no more than 100 nM.

As to `CCCCCCCCC(=O)N[C@H](CN1CCCC1)[C@H](O)c1ccc(OC)c(Cl)c1` [Compound 708], the IC50 is no more than 100 nM.

As for `COc1ccc(C(=O)CCCCC(=O)N[C@H](CN2CCCC2)[C@H](O)c2ccc(OC)c(Cl)c2)cc1` [Compound 709], the IC50 was no more than 100 nM.

Take `COc1ccc([C@@H](O)[C@@H](CN2CCCC2)NC(=O)Cc2ccc(OC(F)(F)F)cc2)cc1Cl` [Compound 710]: the IC50 was no more than 100 nM.

Take `COc1ccc(OCCC(=O)N[C@H](CN2CCCC2)[C@H](O)c2ccc(OC)c(Cl)c2)cc1` [Compound 711]: the IC50 is no more than 100 nM.

As to `COc1ccc(OCCC(=O)N[C@H](CN2CCCC2)[C@H](O)c2ccc(O)cc2)cc1` [Compound 712], the IC50 was in the range of 100 to 1000 nM.

`COCCOCCOc1ccc([C@@H](O)[C@@H](CN2CCCC2)NC(=O)CCOc2ccc(OC)cc2)cc1` [Compound 713]: the IC50 fell in the range of 100 to 1000 nM.

On to `COCCOc1ccc([C@@H](O)[C@@H](CN2CCCC2)NC(=O)CCOc2ccc(OC)cc2)cc1` [Compound 714], for which the IC50 is 3000 to 10000 nM.

`COc1ccc(OCCC(=O)N(CC(=O)c2ccc(OC)cc2)[C@H](CN2CCCC2)[C@H](O)c2ccc(O)cc2)cc1` [Compound 715]: the IC50 lay in the range of 3000 to 10000 nM.

`COc1ccc(OCCC(=O)N(Cc2ccccn2)[C@H](CN2CCCC2)[C@H](O)c2ccc(O)cc2)cc1` [Compound 716]: the IC50 lay in the range of 3000 to 10000 nM.

`COc1ccc(OCCC(=O)N(Cc2nc3ccccc3s2)[C@H](CN2CCCC2)[C@H](O)c2ccc(O)cc2)cc1` [Compound 717]: the IC50 fell in the range of 3000 to 10000 nM.

As for `COc1ccc(OCCC(=O)N(Cc2cccc(-c3noc(C)n3)c2)[C@H](CN2CCCC2)[C@H](O)c2ccc(O)cc2)cc1` [Compound 718], the IC50 was in the range of 3000 to 10000 nM.

Consider `COc1ccc(OCCC(=O)N(Cc2cccc3ccncc23)[C@H](CN2CCCC2)[C@H](O)c2ccc(O)cc2)cc1` [Compound 719], for which the IC50 lay in the range of 3000 to 10000 nM.

Turning to `COc1ccc(OCCC(=O)N(Cc2ccc(-c3noc(C)n3)cc2)[C@H](CN2CCCC2)[C@H](O)c2ccc(O)cc2)cc1` [Compound 720], the IC50 fell in the range of 3000 to 10000 nM.
